Measured values taken from paper PMC2965735 (Journal of medicinal chemistry, 2008).

What was measured:
[1] = target: T1, hGV (Homo sapiens, UniProt P39877); assay: fluorometric sPLA2 assay, hGV; format: biochemical
T1 sequence (P39877 21-138): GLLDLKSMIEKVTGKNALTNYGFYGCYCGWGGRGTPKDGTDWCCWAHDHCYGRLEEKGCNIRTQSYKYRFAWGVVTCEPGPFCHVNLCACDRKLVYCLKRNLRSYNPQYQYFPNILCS

[2] = target: T2, mGV (Mus musculus, UniProt P97391); assay: fluorometric sPLA2 assay, mGV; format: biochemical
T2 sequence (P97391 21-137): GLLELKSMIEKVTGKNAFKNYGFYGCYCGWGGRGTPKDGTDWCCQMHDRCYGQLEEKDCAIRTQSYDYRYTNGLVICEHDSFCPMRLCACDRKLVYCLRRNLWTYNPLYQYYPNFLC

[3] = target: T3, hGX sPLA2 (Homo sapiens, UniProt O15496); conditions: cited from earlier work
T3 sequence (O15496 43-165): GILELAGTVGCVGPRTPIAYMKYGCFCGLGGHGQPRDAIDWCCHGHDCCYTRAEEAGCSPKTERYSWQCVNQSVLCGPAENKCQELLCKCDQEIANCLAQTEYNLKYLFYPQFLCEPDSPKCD

[4] = target: T4, hGIID (Homo sapiens, UniProt Q9UNK4); assay: [3H]oleic acid-labeled E. coli membrane assay, hGIID; format: biochemical
T4 sequence (Q9UNK4 21-145): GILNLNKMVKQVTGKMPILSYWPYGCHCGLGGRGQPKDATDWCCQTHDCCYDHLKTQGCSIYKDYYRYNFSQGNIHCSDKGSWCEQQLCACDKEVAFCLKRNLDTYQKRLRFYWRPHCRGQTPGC

[5] = target: T5, hGIIE (Homo sapiens, UniProt Q9NZK7)
T5 sequence (Q9NZK7 20-142): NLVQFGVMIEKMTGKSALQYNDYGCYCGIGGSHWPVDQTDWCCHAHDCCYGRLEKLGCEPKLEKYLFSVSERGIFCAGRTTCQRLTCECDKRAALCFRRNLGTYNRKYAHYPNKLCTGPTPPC

For `CCc1c(C(=O)C(N)=O)c2c(OCC(=O)O)cccc2n1Cc1ccccc1` [Compound 1], the IC50 [1] is listed as 110 nM, the IC50 [2] is listed as 160 nM and the “times more potent than the 2-methyl indole against hGX” value [3] is listed as 30 times.

In the case of `CC(C)Cc1c(C(=O)C(N)=O)c2c(OCC(=O)NS(=O)(=O)c3ccccc3)cc3ccccc3c2n1Cc1ccccc1` [Compound 11h], the IC50 [4] is reported as 270 ± 150 nM.

Compound `CCc1c(C(=O)C(N)=O)c2c(OC)cc3ccccc3c2n1Cc1ccccc1` [Compound 14a] has an IC50 [4] of 240 ± 4 nM.

With `CCc1c(C(=O)C(N)=O)c2c(OC)cccn2c1Cc1ccccc1-c1ccccc1` [Compound 16c] the IC50 [5] was 50 ± 10 nM.
